Series [1] has as its system caspases 3/7 in MDA-MB-231 cells. In words: Caspase-Glo 3/7 activity assay. It is filed as cell-based. The note with it: Homo sapiens, 24 h treatment, 10 concentrations, read-out: Caspase-Glo 3/7 activity assay, MDA-MB-231 cell line, IC50. The method, then: The Caspase-Glo 3/7 activity assay was performed by Reaction Biology Corporation, One Great Valley Parkway, PA. Examined compounds 4c, 4e, 4h, 6d, and 6e were dissolved in DMSO as 20 mM stock and tested for their ability to Caspase-Glo 3/7 activity assay. […] Caspase-Glo 3/7 activity assay reagent was purchased from Promega (Madison, WI). MDA-MB-231 cell line was provided by ATCC. MDA-MB-231 cell line culture conditions: DMEM with 10% FBS. 100 µg/mL penicillin and 100 µg/mL streptomycin were added to the culture media. Cultures were maintained at 37 °C in a humidified atmosphere of 5% CO2 and 95% air.
Caspases are […] that promote apoptosis. Caspases are vital biochemical features of apoptotic signalling. […] To determine whether the cell growth inhibition in response to the benzochromene derivatives was mediated by apoptosis and was caspase dependent, MDA-MB-231 cells were treated with 10 different concentrations of the target compounds for 24 h.

The test system of another series is HFL-1. In words: MTT viability assay, HFL-1 (normal fibroblast lung). It is filed as cell-based. The note with it: Homo sapiens, HFL1, 24 h incubation, normal cell line, mean ± standard error. How it is done: (§1) Compounds 4a–h and 6a–h were initially evaluated for in vitro antitumour activity against three different human cell lines: MCF-7, HCT-116, and HepG-2, and only the representative active cytotoxic compounds were further evaluated against the normal HFL-1 cell line. The in vitro cytotoxicity evaluation was performed at the Regional Center for Mycology & Biotechnology (RCMP), Al-Azhar University under different concentrations (50, 25, 12.5, 6.25, 3.125, 1.56, and 0 µg/mL); Vinblastine and Doxorubicin are used as reference cytotoxic compounds. The measurements of cell growth and the in vitro cytotoxicity evaluation were determined using viability assay as described in literature[31–33] and the result was cited in Table 1 and Figure 2.
(§2) The in vitro cytotoxic evaluation of the prepared compounds 4a–h and 6a–h was performed against MCF-7 (breast cancer), HCT-116 (human colon cancer), HepG-2 (liver cancer), and HFL-1(normal fibroblast lung) using the 3-(4,5-dimethylthiazol-2-yl)-2,5-diphenyl tetrazolium bromide (MTT) colorimetric assay as described in literature. […] The results were expressed as growth inhibitory concentration (IC50) values, which represent the compounds’ concentrations required to produce a 50% inhibition of the cell growth after 24 h of incubation, compared to the untreated controls as shown in Table 1 and Figure 2.

The test system of a further series is MDA-MB-231 cell line. Put plainly: Cell invasion assay. In kind it is cell-based. The note with it: Homo sapiens. The method, then: The cell invasion assay was performed by Reaction Biology Corporation, One Great Valley Parkway, PA. All compounds were dissolved in DMSO and tested for their ability to cell invasion assay. Compounds 4c, 6e, and reference compound bosutinib were purchased from Sellechem (Houston, TX). Corning Bio Coat Fluoro Blok Insert System-96-well plates were purchased from Corning (Corning Incorporated, Tewksbury, MA). Calcein AM labelling reagent was purchased from Molecular Probes (Eugene, Oregon). MDA-MB-231 cell line was purchased from American Type Culture Collection (Manassas, VA). MDA-MB-231 cells were grown in DMEM medium supplemented with 10% foetal bovine serum (FBS), 100 µg/mL of penicillin, and 100 µg/mL of streptomycin. Cultures were maintained at 37 °C in a humidified atmosphere of 5% CO2 and 95% air-following incubation; medium was carefully removed from the apical chambers. The insert system was transferred into a second 96-square well plate containing 200 µl/well of 4 µg/mL Calcein AM in HBSS. The plates were incubated for 1 h at 37 °C, 5% CO2. Fluorescence of invaded cells was read at wavelengths of 492/535 nm (Ex/Em) from bottom reading using Envision 2104 Multilabel Reader (PerkinElmer, Santa Clara, CA). The IC50 curves were plotted and IC50 values were calculated using the Graph Pad Prism 4 program for windows (Graph Pad software, San Diego California. www.graphpad.com) based on a sigmoidal dose-response equation.
Tumour invasion is a common feature of triple-negative breast cancers. […] The invasion process has become an important prerequisite for cancer progression and metastasis. […] A bosutinib drug was used as a control ant-invasive agent. […] The obtained data might confirm that the cytotoxicity of novel molecules led to the death of the cancer cells and stopped the metastatic processes.

For the next series, the system named is HepG-2. In words: MTT viability assay, HepG-2 (liver cancer). It is filed as cell-based. The settings on record: Homo sapiens, HepG2, 24 h incubation, mean ± standard error. How it is done:
as §1, §2
Background: Tetrazolium assays rely on reduction of a dye to a coloured formazan, in cell work by metabolically active cells.

In the next series the target is T1, c-Src kinase (Homo sapiens, UniProt P12931).
T1 construct: purchased Cell Signaling Technology (Danvers, MA) 7776
T1 sequence (P12931 whole entry): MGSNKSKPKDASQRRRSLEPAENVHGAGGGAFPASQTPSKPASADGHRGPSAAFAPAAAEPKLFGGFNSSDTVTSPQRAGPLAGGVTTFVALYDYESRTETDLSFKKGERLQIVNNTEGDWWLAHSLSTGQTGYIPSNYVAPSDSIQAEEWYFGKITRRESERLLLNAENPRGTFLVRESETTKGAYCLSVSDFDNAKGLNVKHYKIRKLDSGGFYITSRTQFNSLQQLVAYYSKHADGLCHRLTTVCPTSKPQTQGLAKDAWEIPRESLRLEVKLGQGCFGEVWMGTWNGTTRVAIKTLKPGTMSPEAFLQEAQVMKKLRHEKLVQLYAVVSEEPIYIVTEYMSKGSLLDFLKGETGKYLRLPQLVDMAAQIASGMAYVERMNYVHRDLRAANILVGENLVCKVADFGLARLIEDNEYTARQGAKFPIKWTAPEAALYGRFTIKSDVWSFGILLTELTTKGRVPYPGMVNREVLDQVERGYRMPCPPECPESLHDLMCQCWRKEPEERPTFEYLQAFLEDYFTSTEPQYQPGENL
Put plainly: c-Src kinase assay (HTScan Src Kinase Assay Kit). It is filed as biochemical. The note with it: GST-Src kinase, triplicate; read-out: Inhibition of c-Src kinase activity, IC50. The method, then: Streptavidin-coated plates were purchased from Pierce (Rockford, IL). […] The reaction mixture was incubated for 30 min at room temperature. The kinase reaction was stopped with the addition of 50 µL of 50 mM EDTA (pH 8.0). […] At the end of the incubation, the wells were washed three times with 200 µL of 0.05% Tween-20 in PBS buffer (PBS/T). After that to each well was added 100 µL of phosphotyrosine antibody (P-Tyr-100) (1:1000 dilution in PBS/T with 1% BSA) and the wells were incubated for another 60 min. After washing three times with 0.05% Tween-20 in PBS/T, the wells were incubated with 100 µL secondary anti-mouse IgG antibody, which was HRP-conjugated (1:500 dilution in PBS/T with 1% BSA) for next 30 min at room temperature. The wells were washed five times with 0.05% Tween-20 in PBS and then were incubated with 100 µL of 3,3′,5,5′-tetramethylbenzidine dihydrochloride substrate for 5 min. […] IC50 values of the compounds were calculated using ORIGIN 6.0 (Origin Lab Corporation, Northampton, MA) software. […] All the experiments were carried out in triplicate.

Another series deals with MCF-7. In words: MTT viability assay, MCF-7 (breast cancer). In kind it is cell-based. The note with it: Homo sapiens, MCF7, 24 h incubation, mean ± standard error. The method, then: as §1, §2
Another series deals with HCT-116. In words: MTT viability assay, HCT-116 (human colon cancer). The note with it: 24 h incubation, mean ± standard error. It is filed as cell-based. The method, then:
as §1, §2

Setting [2] is: Table 2, read-out: IC50 anti-invasion, MDA-MB-231 breast cancer cells.

≈ marks a conversion by molar mass, not a printed value. Where “and” joins values, the source holds several entries; their conditions need not be identical. Equal values may be shown once. Read-outs that look alike come from different tables or passages of the source.

For two molecules, IC50 and melting point results are on record in publication PMC6022228, “Introducing novel potent anticancer agents of 1H-benzo[f]chromene scaffolds, targeting c-Src kinase enzyme with MDA-MB-231 cell line anti-invasion effect” (Journal of Enzyme Inhibition and Medicinal Chemistry, 2018).

Broadly, the melting point is the temperature of the solid-liquid transition.

`N#CC1=C(N)Oc2ccc3cc(Br)ccc3c2C1c1ccc(Cl)cc1` (centres unmarked) [Compound 4c, 3-Amino-8-bromo-1-(4-chlorophenyl)-1H-benzo[f]chromene-2-carbonitrile] had a melting point of 260 to 261 °C. In addition, the IC50 in series [1] stood at 22.6 µM. For the same molecule, the IC50 with HFL-1 was determined as 15.2 ± 0.1 µg/mL (≈ 36.9 µM). For the same molecule, the IC50 in the series on MDA-MB-231 cell line (setting [2]) stood at 10.8 µM. Moreover, the IC50 in the series on MDA-MB-231 cell line (read-out: IC50 anti-invasion activity, MDA-MB-231) stood at 10.5 µM. This molecule also showed an IC50 in the series with HepG-2 of 1.1 ± 0.12 µg/mL (≈ 2.67 µM). Besides, the IC50 on c-Src kinase is 0.009 to 0.329 µM and 0.089 µM. The molecule further came in with an IC50 with MCF-7 of 0.5 ± 0.23 µg/mL (≈ 1.21 µM). In the series on HCT-116, the IC50 was determined as 0.7 ± 0.11 µg/mL (≈ 1.7 µM).
With `COc1ccc2c3c(ccc2c1)OC(N)=C(C#N)C3c1ccc(C)cc1` (centres unmarked) [Compound 6e, 3-Amino-8-methoxy-1-(4-methylphenyl)-1H-benzo[f]chromene-2-carbonitrile], the melting point was in the range of 232 to 233 °C. Besides, in series [1], the IC50 amounted to 38.9 µM. In addition, in the series with HFL-1, the IC50 came out at 29.7 ± 0.17 µg/mL (≈ 86.7 µM). The IC50 with MDA-MB-231 cell line (setting [2]) was determined as 16.5 µM. Further, in the series with HepG-2, the IC50 was found to be 0.6 ± 0.21 µg/mL (≈ 1.75 µM). Also, at c-Src kinase, the IC50 stood at 0.009 µM. In addition, in the series on MCF-7, the IC50 was determined as 0.3 ± 0.05 µg/mL (≈ 0.876 µM). In the series on HCT-116, this molecule yielded an IC50 of 0.8 ± 0.06 µg/mL (≈ 2.34 µM).
